Measured values reported in publication PMC12517324, “Hyperagonism of a Vitamin D Receptor Agonist/Histone Deacetylase Inhibitor Hybrid Molecule” (Journal of Medicinal Chemistry, 2025).
pIC50: −log10 of the molar value.

Biological target: HDAC2 (Homo sapiens, UniProt Q92769)
Assay: Inhibition of purified HDAC2, Boc-Lys(Ac)-AMC substrate
Type: biochemical
Design: purchased Cayman Chemical
Settings: 1 h 37 °C

Sequence of HDAC2 (Q92769 whole entry): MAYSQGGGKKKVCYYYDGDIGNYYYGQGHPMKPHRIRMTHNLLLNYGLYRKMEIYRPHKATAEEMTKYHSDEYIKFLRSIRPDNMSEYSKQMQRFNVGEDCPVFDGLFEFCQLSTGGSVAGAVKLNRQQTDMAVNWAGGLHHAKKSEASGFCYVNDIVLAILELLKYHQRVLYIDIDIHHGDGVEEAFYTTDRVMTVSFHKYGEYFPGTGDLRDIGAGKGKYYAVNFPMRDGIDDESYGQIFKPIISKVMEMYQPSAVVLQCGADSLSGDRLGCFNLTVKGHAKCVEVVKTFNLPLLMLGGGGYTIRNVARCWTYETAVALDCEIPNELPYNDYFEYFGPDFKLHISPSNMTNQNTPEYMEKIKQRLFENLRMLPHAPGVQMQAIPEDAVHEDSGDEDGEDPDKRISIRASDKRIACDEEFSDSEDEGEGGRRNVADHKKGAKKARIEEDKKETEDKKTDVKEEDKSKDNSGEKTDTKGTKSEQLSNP

pIC50: 5.38
Compound: CCC(CC)(c1ccc(OCCCCCC(=O)NO)cc1)c1ccc(OCC(O)C(C)(C)C)c(C)n1 (stereo not shown) [AM-193]
